The values below come from patent US20230035479A1, “METHODS AND COMPOSITIONS FOR REDUCING HAIR GREYING” (President and Fellows of Harvard College, priority 2019, published 2023).

The test system of the assay is melanocyte stem cells (MeSCs). Description: RNA-seq of FACS-purified MeSCs. As to conditions: 12 hours after RTX injection. It is filed as in vivo, mouse. On the procedure:
Examination of marker gene expression for diverse skin cell types confirmed successful enrichment for MeSCs (FIG. 12D). To uncover major molecular changes, Gene Ontology (GO) enrichment analysis was conducted (FIG. 5B). A list of known genes associated with MeSC proliferation and differentiation was curated (FIG. 5C, FIG. 12E). Moreover, a list of genes previously denoted for cell cycle entry was utilized to assess if cell cycle regulators are altered at the transcriptional level (FIG. 12F). Some of these key changes were also verified by quantitative RT-PCR (qRT-PCR) (FIG. 12G). […]
MeSCs were purified using FACS from control and stressed mice skin samples at telogen based on their expression of CD117 [7], starting from a population that is negative for CD140a, CD45, Sca1, and CD34 [57]. […] Single-end sequencing reads were obtained using Illumina NextSeq 500 platform. Sequencing reads from RNA-seq libraries were trimmed using Trim Galore! […] Reads with alignment quality <Q30 were discarded. Gene expression levels were normalized and differential genes were calculated using DEseq2 package in R [60]. […] Transcripts Per Kilobase Million (TPM) calculated from count tables of Control MeSC samples were used to determine the expression levels of adrenergic receptors and glucocorticoid receptor shown in FIG. 2C.

Turning to `C=C(C)[C@]12C[C@@H](C)[C@@]34O[C@](Cc5ccccc5)(O[C@@H]1[C@@H]3C=C(COC(=O)Cc1ccc(O)c(OC)c1)C[C@]1(O)C(=O)C(C)=C[C@@H]41)O2` [RTX, resiniferatoxin], the “transcriptome changes in MeSCs” value is “upregulate proliferation and differentiation programs”.
